Columns and labels:
PC-12 cells [1] = assay: In vitro neuroprotective activity, hydrogen peroxide injury model (CCK-8 viability); format: cell-based; conditions: Rattus norvegicus; compound 10 µM; PC-12 cells injured with hydrogen peroxide (120 µM) for 2 h; 24-hour incubation; relative to model group; read-out: Improved Viability (%)
Method: (§1) The in vitro neuroprotective models for evaluating the test compound were hydrogen peroxide injury and glutamate injury models. The PC-12 cells were seeded in a 96-well plate at a density of 1.5 × 10^4 cells/mL, 100 µL per well. The experiment included a blank group, a model group, and drug treatment groups. The hydrogen peroxide injury and glutamate injury models were stimulated for 2 h with a final concentration of 120 µM hydrogen peroxide or 8 mM glutamate, respectively. Subsequently, the cells in the blank group were cultured in complete medium, whereas the cells in the drug treatment groups were cultured by adding 10 µM test compound. After 24-hour incubation for all groups, 10 µL of CCK-8 was added to each well. 60 min later, the absorbance at 490 nm was measured using a microplate reader. The viability was calculated. Improved Viability = (Viability in Drug Treatment Group - Viability in Model Group)/(Viability in Model Group). Table 1 Protective Effects of Phthalazinone Compounds on Nerve Cell Injury Induced by Hydrogen Peroxide (120 µM)

PC-12 cells [2] = assay: In vitro neuroprotective activity, glutamate injury model (CCK-8 viability); format: cell-based; conditions: Rattus norvegicus; compound 10 µM; PC-12 cells injured with glutamate (8 mM) for 2 h; 24-hour incubation; relative to model group; read-out: Improved Viability (%)
Method: as §1

[3] = tested on: rats with ischemic stroke; assay: In vivo anti-ischemic stroke activity, middle cerebral artery occlusion model; set-up: species or system SD rats

Compound	activation at 10 µM (PC-12 cells [1])	activation at 10 µM (PC-12 cells [2])	other results
CCCCc1nn(Cc2ccc3ccccc3c2)c(=O)c2c(OCCC)cccc12 [Compound 15, 2-(Naphthylmethyl)-4-butyl-8-propoxy-phthalazin-1(2H)-one]	1.59 ± 1.13%		
CCCCc1nn(CC)c(=O)c2c(OCC3CCCCC3)cccc12 [Compound 7, 2-Ethyl-4-butyl-8-(cyclohexylmethoxy)-phthalazin-1(2H)-one]	0.81 ± 0.37%		
CCCCc1nn(CC)c(=O)c2c(OC)cccc12 [Compound 2, 2-Ethyl-4-butyl-8-methoxy-phthalazin-1(2H)-one]	35.8 ± 3.55%	0.04 ± 1.05%	
CC1=NN(c2ccccc2)C(=O)C1 [Edaravone, reference compound]	11.3 ± 2.15%	3.14 ± 0.85%	
CCCCc1nn(CC2CCCCC2)c(=O)c2c(OCCC)cccc12 [Compound 14, 2-(Cyclohexylmethyl)-4-butyl-8-propoxy-phthalazin-1(2H)-one]	6.68 ± 3.51%	3.16 ± 3.54%	
CCCCc1nn(Cc2ccc(F)cc2)c(=O)c2c(OCC3CC3)cccc12 [Compound 17, 2-(4-Fluorobenzyl)-4-butyl-8-(cyclopropylmethoxy)-phthalazin-1(2H)-one]	33 ± 2.37%	12.2 ± 2.57%	survival rate of rats with ischemia-reperfusion injury ([3]; intragastric 10, 30 and 60 mg/kg, once daily for 7 days, FIG. 1): effectively increase; body weight of rats ([3]; intragastric 10, 30 and 60 mg/kg, once daily for 7 days, FIG. 2): reverse the decrease trend; volume of cerebral infarction ([3]; intragastric 10, 30 and 60 mg/kg, once daily for 7 days, TTC staining, FIG. 3): reduce the volume of cerebral infarction in a dose-dependent manner; effects compared with positive control drug butylphthalide (200 mg/kg) ([3]; survival rate, body weight, infarction volume, Compound 17 at 10, 30, 60 mg/kg by gavage): superior
CCCCc1nn(CCC)c(=O)c2c(OCCC)cccc12 [Compound 12, 2-Propyl-4-butyl-8-propoxy-phthalazin-1(2H)-one]	12.9 ± 6.03%	5.11 ± 2.33%	
CCCCc1n[nH]c(=O)c2c(OCCC)cccc12 [Compound 9, 4-Butyl-8-propoxy-phthalazin-1(2H)-one]	60.2 ± 5.87%	7.48 ± 3.07%	
CCCCc1nn(CC)c(=O)c2c(OCc3ccc4ccccc4c3)cccc12 [Compound 20, 2-Ethyl-4-butyl-8-(naphthalene-2-methoxy)-phthalazin-1(2H)-one]	34 ± 3.92%	8.77 ± 3.01%	
CCCCc1nn(Cc2ccc(F)cc2)c(=O)c2c(OCCC)cccc12 [Compound 11, 2-(4-Fluorobenzyl)-4-butyl-8-propoxy-phthalazin-1(2H)-one]	96.8 ± 8.64%	32.7 ± 6.21%	
CCCCc1nn(Cc2ccncc2)c(=O)c2c(OCCC)cccc12 [Compound 10, 2-(Pyridin-4-methylene)-4-butyl-8-propoxy-phthalazin-1(2H)-one]	1.93 ± 2.37%		
CCCCc1nn(CC2CC2)c(=O)c2c(OC)cccc12 [Compound 4, 2-(Cyclopropylmethyl)-4-butyl-8-methoxy-phthalazin-1(2H)-one]	23.4 ± 1.83%	9.75 ± 3.22%	
CCCCc1nn(CC2CCCCC2)c(=O)c2c(OC)cccc12 [Compound 5]	61.9 ± 6.53%	14 ± 6.21%	
CCCCc1nn(CC2CC2)c(=O)c2c(OCCC)cccc12 [Compound 13, 2-(Cyclopropylmethyl)-4-butyl-8-propoxy-phthalazin-1(2H)-one]	3.14 ± 1.45%	47.8 ± 8.14%	
CCCCc1nn(Cc2ccccc2)c(=O)c2c(OCC3CCCCC3)cccc12 [Compound 8, 2-Benzyl-4-butyl-8-(cyclohexylmethoxy)-phthalazin-1(2H)-one]	12.1 ± 3.25%	7.99 ± 2.98%	
